Results as given in US20090176776A1, “SMALL MOLECULE INHIBITORS OF HIV-1 CAPSID ASSEMBLY” (UNIVERSITY OF ALABAMA AT BIRMINGHAM, priority 2005, published 2009).

What was measured:
[1] = MTS score (Table 1; method not described); assay type: cell-based
HIV-1YU2 = assay: Anti-HIV assay (multiple round), luciferase expression in Luc-M7 cells; assay type: cell-based; settings: Luc-M7 cells infected with HIV-1YU2, 6 days, Bright-Glo
Method: (§1) Anti-HIV Assays (Multiple Round). The inhibitory effects of the tested compounds on HIV-1YU2 replication were determined by the level of luciferase expression after 6 days of infection using Bright-Glo assay (Promega). An amount of 1.5×10^4 Luc-M7 (a gift from Ned Landau) cells per ml were infected with HIV-1YU2 at a multiplicity of infection (MOI) of 3. The HIV-1 infected ([…] compound) or mock-infected (0-300 μM compound) Luc-M7 cells were placed in 96-well culture plates (100 μl/well) with 100 μl of various concentrations of the compounds with 20 μg/ml DEAE Dextran in triplicate and incubated at 37° C. under 5% CO2 at 100% humidity. After 6 days, cell viability was quantified by Cell-Titer Glo assay (Promega). […] On day 5 cell viability was determined in the mock-infected cells. FIGS. 12-18 show the anti-HIV assays for the examples of chemical compounds used according to the invention. After in-vitro assay, the chemical compounds in FIGS. 12-18 were selected for screening for cell viability and toxicity. Jurkat cells assay was used as screening assay. […] After five days, GFP expression was read. Cell viability was monitored with Alamar Blue assay. Luc M7 assay was designed to measure inhibitory activity of the chemical compounds to viral replication. After infection of cells with YU2 virus, plate cells in 96-well plate in the presence of six concentration of compounds in DMSO. At day 6, the number of cells in wells were read with Cell Titer Glo kit or by counting the number of cells infected with Bright Glo kit. 293T cells assay was designed to determine the toxicity. 293T cells were transfected with NL43. After four hours, transfected cells were plated in 96-well plate in DMSO and 2 μM Indinavir. 72 hours later, viral supernatant was collected and plated on J[…].

Luc-M7 cells = assay: Cell viability of Luc-M7 cells (Cell-Titer Glo); assay type: cell-based; parameters: unit: μM; settings: mock-infected Luc-M7 cells, 6 days
Method: as §1

HIV-1NL43 = assay: Anti-HIV assay (single round), infectivity of virus produced, titered on TZM-b1 cells; assay type: cell-based; settings: virus from NL43-transfected 293T cells, 72 hours; luciferase after two days; read-out: Infectivity 50%
Method: (§2) Anti-HIV Assays (Single Round). The inhibitory effect of the compounds on virus production and infectivity were determined by measuring the level of p24 produced in the presence of various concentrations of compounds from HEK-293 cells transiently transfected with pNL43 and by titering the virus on TZM-b1 cells. Briefly, 2.5×10^5 HEK-293 cells/ml were transfected with pNL43 using FuGene 6. Four hours post transfection the cells were plated in 96-well plates containing 100 μl of various concentrations of compounds (0-75 μM or 0-300 μM for mock transfected cells) in triplicate. At 72-hours post transfection virus supernatant was collected and stored at −80° C. until analysis. The level of p24 produced at each compound concentration was determined relative to the level produced in the presence of the DMSO only controls using HIV-1 p24 enzyme-linked immunosorbent assay (ELISA) (Beckman-Coulter). To determine the infectivity of the virus produced TZM-b1 cells were plated at 1×10^5 cells/ml in 100 μL in 96-well plates overnight. The next day, the media was replaced with 75 μL DMEM supplemented with 1% FBS, 1× PSG and 40 μg/ml DEAE Dextran and 25 μL of viral supernatant from the HEK-293 cells was added to each well. Three hours later 100 μL of DMEM with 7% FBS was added to each well. Two days after infection the cells were lysed and the level of luciferase expression was determined using the Bright-Glo assay.
(§3) FIGS. 12-18 show the anti-HIV assays for the examples of chemical compounds used according to the invention. After in-vitro assay, the chemical compounds in FIGS. 12-18 were selected for screening for cell viability and toxicity. Jurkat cells assay was used as screening assay. In Jurkat cells assay, JLTRG-R5 cells were used as Indicator cells and MOLT4 cells as Producer cells of NL43 and BAL virus. 96 chemical compounds were plated at seven different concentration from 75 μM to 0 μM at three-fold serial dilutions in 384 well plate. After five days, GFP expression was read. Cell viability was monitored with Alamar Blue assay. Luc M7 assay was designed to measure inhibitory activity of the chemical compounds to viral replication. After infection of cells with YU2 virus, plate cells in 96-well plate in the presence of six concentration of compounds in DMSO. At day 6, the number of cells in wells were read with Cell Titer Glo kit or by counting the number of cells infected with Bright Glo kit. 293T cells assay was designed to determine the toxicity. 293T cells were transfected with NL43. After four hours, transfected cells were plated in 96-well plate in DMSO and 2 μM Indinavir. 72 hours later, viral supernatant was collected and plated on JC53BL. Luciferase expression was measure after two days and p24 analysis was conducted with 1:1000 and 1:2000 dilutions.

293T cells = assay: Toxicity in 293T cells; assay type: cell-based, human; parameters: unit not given beside the values
Method: as §2, §3

[2] = target: C-terminal domain of the CA protein (Human immunodeficiency virus type 1 group M subtype B, UniProt P12493); settings: 1 mM compound, 0.02 mM protein domain; peaks at 5.5 ppm and 8 ppm
Text: (§4) The STD-NMR spectroscopy is an extremely powerful and sensitive technique to detect and identify the binding of low molecular weight (MW) ligands specific to a target protein of interest. […] This technique exploits the transfer of radio frequency saturation of the proton magnetization on the large protein to the low MW ligand during the brief period it resides within the binding pocket of the protein, before it is released into solution. It also exploits the large differences in the correlation times of the interacting molecules.

[3] = target: N-terminal domain of the CA protein (Human immunodeficiency virus type 1 group M subtype B, UniProt P12493); settings: 1 mM compound; peaks at 5.5 ppm and 8 ppm
Text: as §4

Cc1ncc(C[n+]2csc(CCOC(=O)C3C4CC5CC(C4)CC3C5)c2C)c(N)n1.Cl.[Cl-] (stereo not shown) [Compound 26]
MTS AVG 4 (No Effect) ([1]; average of the MTS scores at 10, 30 and 100 μM): 4.000
MTS 10 μM ([1]; score at nominal 10 μM, 4 = No Effect): 4
MTS 30 μM ([1]; score at nominal 30 μM, 4 = No Effect): 4
MTS 100 μM ([1]; score at nominal 100 μM, 4 = No Effect): 4
IC50 (HIV-1YU2): 4.57 µM
TC50 (Luc-M7 cells): 70.4
IC50 (HIV-1NL43): 17.6 µM
TC50% (293T cells): 193
binding to the CTD domain (STD-NMR) [2]: binding of the chemical compound 26 to the CTD domain is clearly indicated
binding to the NTD domain (STD-NMR) [3]: binds to the NTD domain
